# According to patent publication US7345091B2, “Carotenoid ether analogs or derivatives for the inhibition and amelioration of disease” (Cardax Pharmaceuticals, Inc., priority 2002, dated 2008):
# Entries after “also recorded” stand apart in the source; their conditions may differ. Structures can show the parent of a compound that is named as a salt. Where two headings read alike, the source gives them in different places.
# What was measured:
# superoxide anion = assay: Superoxide anion scavenging by EPR (DEPMPO spin trap) in phorbol ester-stimulated isolated neutrophils; type: cell-based, human; details: for potency relative to the SOD mimetic positive control: adjusted for percent inhibition and tested dose
# Procedure: In an experiment, neutrophils were isolated on a Percoll gradient from whole blood from a human volunteer. The isolated neutrophils were then re-suspended in phosphate-buffered saline, and maximally stimulated with phorbol ester to induce the respiratory burst and production of superoxide anion. To the solution of activated human neutrophils, the disodium salt disuccinate astaxanthin derivative XVI was added at various concentrations, and the superoxide signal [as measured with electron paramagnetic resonance (EPR) spectroscopy] was subsequently measured. […] The disodium salt disuccinate astaxanthin derivative XVI tested at 100 μM scavenged 28% of the total signal. At 3 mM, almost no superoxide signal remained. […] In addition to reducing the superoxide anion signal important in ischemia-reperfusion injury, it is also likely that myocardial salvage can be achieved with the described carotenoid derivative, as superoxide anion plays a major role in tissue injury and death during prolonged myocardial ischemia. In a third experiment, neutrophils were again isolated on a Percoll gradient from whole blood from a second human volunteer. The isolated neutrophils were then re-suspended in phosphate-buffered saline, and maximally stimulated with phorbol ester to induce the respiratory burst and production of superoxide anion. […] Astaxanthin 2E was dissolved in HPLC grade dimethylsulfoxide (DMSO; Sigma-Aldrich, St. Louis, Mo.). The disodium disuccinate derivatives XVI of astaxanthin 2E were tested separately in […] formulations: statistical mixture of stereoisomers (as for astaxanthin, above, a 1:2:1 mixture of all-E; labeled as “mixture” in all tables and figures); 3S,3'S, and 3R,3'R (optical isomers or enantiomers); and meso (mixture of identical 3S,3'R and 3'S,3R; diastereomers of the enantiomeric pair). […] The disuccinate derivatives were first tested at the appropriate final concentrations in pure aqueous solution (deionized water) from stock solutions of 10 mM. Each of the four disuccinate derivatives were then tested from stock solutions prepared in a 1:2 mixture of ethanol (final concentration of EtOH in stock solution 331⁄3%; final concentration in isolated neutrophil assay 0.3%; HPLC grade ethanol, Sigma-Aldrich, St. Louis, Mo.) at 10 mM. […] Metaphore® Pharmaceuticals, Inc., St. Louis, Mo.) were also performed. Human polymorphonuclear leukocytes (PMNs) were isolated from freshly sampled venous blood of a single volunteer by Percoll density gradient centrifugation, which yielded PMNs with a purity of >95%. Each 10 mL of whole blood was mixed with 0.8 mL of 0.1 M EDTA and 25 mL of saline. The diluted blood was layered over 9 mL of Percoll at a specific density of 1.080 g/mL. After centrifugation at 400×g for 20 min at 20° C., the plasma, mononuclear cell, and Percoll layers were removed. Erythrocytes were lysed by addition of 18 mL of ice-cold water for 30 s, followed by 2 mL of 10× PIPES buffer (25 mM PIPES, 110 mM NaCl, and 5 mM KCl, titrated to pH 7.4 with NaOH). Cells were pelleted at 4° C., the supernatant was decanted, and the procedure was repeated. After the second hypotonic lysis, cells were washed twice with PAG buffer (PIPES buffer containing 0.003% human serum albumin and 0.1% glucose). Afterward, PMNs were counted by light microscopy on a hemocytometer. The final pellet was then suspended in PAG-CM buffer (PAG buffer with 1 mM CaCl2 and 1 mM MgCl2). All EPR measurements were performed using a Bruker ER 300 EPR spectrometer operating at X-band with a TM110 cavity. The microwave frequency was measured with a Model 575 microwave counter (EIP Microwave, Inc., San Jose, Calif.). To measure O^ -2 generation from phorbol-ester (PMA)-stimulated PMNs, EPR spin-trapping studies were performed using DEPMPO (Oxis, Portland, Oreg.) at 10 mM. 1×10^6 PMNs were stimulated with PMA (1 ng/mL) and loaded into capillary tubes for EPR measurements. […]
# male ICR mice = assay: LPS/galactosamine-induced liver injury (plasma ALT); type: in vivo, mouse; details: for LPS-induced ALT elevation: 500 mg/kg oral gavage in emulsion 2 hours before LPS/D-galactosamine IP, 5 hours
# Procedure: Three-month old male ICR mice were treated with LPS and galactosamine in order to induce liver injury (Leist, 1995). Mice were first orally gavaged with either an olive oil/water/lecithin emulsion (10 mL/kg, or 0.3 mL for a 30 gram mouse), or the same emulsion containing the disodium disuccinate astaxanthin derivative XVI (50 mg/mL) for a final disodium disuccinate astaxanthin dose of 500 mg/kg. Two hours later mice were injected intraperitoneally (IP) with either saline (10 mL/kg) or a solution of E. coli LPS (3 mg/kg, Sigma catalog number L-3755) and D-galactosamine (700 mg/kg). Animals were sacrificed by carbon dioxide (CO2) asphyxiation 5 hours after the IP injection, and plasma was then collected for ALT determination.
compound,measurement,setting,value
"CC1=C(/C=C/C(C)=C/C=C/C(C)=C/C=C/C=C(C)/C=C/C=C(C)/C=C/C2=C(C)C(=O)C(OC(=O)CCC(=O)O)CC2(C)C)C(C)(C)CC(OC(=O)CCC(=O)O)C1=O (racemic) [XVI, Disodium Salt of the Disuccinic Acid Ester of Astaxanthin]",total superoxide signal scavenged,"superoxide anion; 100 μM, first experiment (FIG. 2)",28%
same,suppression of superoxide anion signal,"superoxide anion; 3 mM, first experiment (FIG. 2)",near complete suppression of the superoxide anion signal
same,inhibition at 100 µM,"superoxide anion; Homo sapiens, Neutrophil, Solvent EtOH (1:2 EtOH/water stock, 0.3% final), 0.1 mM, read-out: Mean (% inhibition) of superoxide anion signal",~40%
same,inhibition at 500 µM,"superoxide anion; Homo sapiens, Neutrophil, Solvent EtOH, 0.5 mM, read-out: Mean (% inhibition) of superoxide anion signal",60.1%
same,inhibition at 1000 µM,"superoxide anion; Homo sapiens, Neutrophil, Solvent EtOH, 1.0 mM, read-out: Mean (% inhibition) of superoxide anion signal",78%
same,inhibition at 3000 µM,"superoxide anion; Homo sapiens, Neutrophil, Solvent EtOH, 3.0 mM, read-out: Mean (% inhibition) of superoxide anion signal",95%
same,inhibition at 100 µM,"superoxide anion; Homo sapiens, Neutrophil, Solvent Water, 0.1 mM, read-out: Mean (% inhibition) of superoxide anion signal",19.3%
same,Mean (% inhibition) of superoxide anion signal,"superoxide anion; Solvent EtOH (1:2 EtOH/water stock, 0.3% final), 0.1 mM, listed as Mixture",38.0%
same,potency relative to the SOD mimetic positive control,superoxide anion,one to two orders of magnitude less potent
same,potency relative to the SOD mimetic positive control,superoxide anion; listed as disodium disuccinate derivative,between one and two orders of magnitude less potent
same,LPS-induced ALT elevation,male ICR mice,substantially reduced
same,LPS-induced ALT elevation,male ICR mice; listed as disodium disuccinate astaxanthin derivative,reduced induced levels of ALT
same,effect on plasma ALT in saline injected (sham-treated) animals,"male ICR mice; 500 mg/kg oral gavage in emulsion, listed as disodium disuccinate astaxanthin derivative",no effect on plasma ALT; also recorded: no effect on background levels of ALT
